Columns and labels:
untransformed cells = assay: Selection with DKN as selectable agent in Shoot Induction medium, cotyledonary node method; format: cell-based, soybean; conditions: DKN 2 ppm in Shoot Induction medium
Protocol: The cotyledonary node method used for transforming soybean has been described by Zhang et al., 1999, Clemente et al. 2000, Xing et al. 2000.
After washing, the explants are placed (5 per plate) on the Shoot Initiation Medium, inclined at 45°, with the cotyledonary node area imbedded in the medium and upwards. The Shoot Initiation step lasts 1 month (24° C. 16/8 photoperiod) with a transfer after 15 days in which the hypocotyl is eliminated to keep only the differentiating area and the cotyledon.
1×B5 major salts, 1×B5 minor salts, 28 mg/L Ferrous, 38 mg/L NaEDTA, 30 g/L Sucrose, 0.59 g/L MES, and 7 g/L Noble agar (pH 5.7). Filter sterilized 1×B5 vitamins, BAP (1.11 mg/L), Timentin (50 mg/L), Cefotaxime (200 mg/L), Vancomycin (50 mg/L) and the selection agent are added to this medium after autoclaving.
Transgenic events (cv Thorne) were generated for construct carrying hppd gene alone (e.i. pFCO117) or in combination with pdh gene (e.i. pFCO48), using DKN as selection agent, as described in example 1. Selection agent DKN (diketonitrile) was added in SI (Shoot Induction medium) at a final concentration of 2 ppm and for about 4 week. When explants were transferred to SE (Shoot Elongation medium), selection was removed. […] Visual selectable marker dramatically decreases selection time, as untransformed material can be identified and eliminated in as little as 4 weeks after transformation.

untransformed tissue = assay: Visual selection with IFT as selectable agent; format: cell-based, soybean; conditions: FIG. 1; transformed material becomes green
Source text: FIG. 1: Visual selection with IFT as selectable agent.

[1] = about 4 weeks, cv Thorne, in vitro

SMILES	effect on chlorophyll synthesis (untransformed cells; [1])	lethality for untransformed cells (untransformed cells; [1])	phenotype of untransformed tissue (untransformed cells; transformed material becomes green)	phenotype of untransformed tissue (untransformed tissue)
CS(=O)(=O)c1cc(C(F)(F)F)ccc1C(=O)C(C#N)C(=O)C1CC1 (stereo not shown) [DKN, 2-cyano-3-cyclopropyl-1-(2-methylsulphonyl-4-trifluoromethylphenyl)-propane-1,3-dione]	prevents chlorophyll synthesis	does not kill untransformed cells	white, elongated shoots	
CS(=O)(=O)c1cc(C(F)(F)F)ccc1C(=O)c1cnoc1C1CC1 [IFT, (5-cyclopropyl-4-isoxazolyl)[2-(methylsulfonyl)-4-(trifluoromethyl)phenyl]methanone]				white, elongated shoots
